As usually defined, the IC50 is the concentration needed to halve the response being measured.

The source made the active and inactive calls. No cut-off for these calls is given here.

The target of experiment [1] is Glycogen synthase kinase-3 alpha (Homo sapiens) (UniProt P49840). The settings on record: Compound concentration 1000.0 nM.
The target in experiment [2] is Hepatocyte growth factor receptor (Homo sapiens) (UniProt P08581). The settings on record: Compound concentration 1000.0 nM.
The target of experiment [3] is Mitotic checkpoint serine/threonine-protein kinase BUB1 (Homo sapiens) (UniProt O43683). The settings on record: Compound concentration 1000.0 nM.
Sequence of Mitotic checkpoint serine/threonine-protein kinase BUB1 (Homo sapiens) (O43683 whole entry, looked up): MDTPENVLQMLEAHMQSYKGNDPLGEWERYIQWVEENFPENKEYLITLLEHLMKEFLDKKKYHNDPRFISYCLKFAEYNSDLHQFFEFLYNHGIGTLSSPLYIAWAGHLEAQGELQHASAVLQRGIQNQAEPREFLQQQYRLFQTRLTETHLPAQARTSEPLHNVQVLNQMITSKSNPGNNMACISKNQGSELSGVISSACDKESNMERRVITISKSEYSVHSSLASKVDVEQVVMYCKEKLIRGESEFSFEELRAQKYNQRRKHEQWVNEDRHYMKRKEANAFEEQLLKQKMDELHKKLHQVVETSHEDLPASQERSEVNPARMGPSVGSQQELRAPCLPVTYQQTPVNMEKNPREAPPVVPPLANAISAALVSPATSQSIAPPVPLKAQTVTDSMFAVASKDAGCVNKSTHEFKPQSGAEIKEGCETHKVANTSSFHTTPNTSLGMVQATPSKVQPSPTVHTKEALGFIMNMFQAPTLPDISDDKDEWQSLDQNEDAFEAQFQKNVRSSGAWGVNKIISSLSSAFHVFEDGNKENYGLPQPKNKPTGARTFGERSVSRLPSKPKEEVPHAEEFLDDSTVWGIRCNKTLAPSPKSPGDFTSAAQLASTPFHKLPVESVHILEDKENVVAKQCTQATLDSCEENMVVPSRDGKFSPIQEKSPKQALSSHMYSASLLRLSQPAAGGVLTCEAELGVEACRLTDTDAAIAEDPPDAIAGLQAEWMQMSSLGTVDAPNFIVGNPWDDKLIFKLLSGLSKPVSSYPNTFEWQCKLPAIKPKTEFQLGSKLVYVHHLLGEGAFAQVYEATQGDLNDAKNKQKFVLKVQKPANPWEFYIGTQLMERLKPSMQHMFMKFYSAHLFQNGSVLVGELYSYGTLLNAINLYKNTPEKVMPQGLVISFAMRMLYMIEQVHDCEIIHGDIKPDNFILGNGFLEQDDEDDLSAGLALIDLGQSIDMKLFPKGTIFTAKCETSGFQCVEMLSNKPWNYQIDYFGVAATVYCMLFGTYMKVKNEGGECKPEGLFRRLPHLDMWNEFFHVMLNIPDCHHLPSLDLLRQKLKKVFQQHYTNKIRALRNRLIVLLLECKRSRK
The target in experiment [4] is 5'-AMP-activated protein kinase catalytic subunit alpha-1 (Homo sapiens, UniProt Q13131). Put plainly: Biochemical PRKAA1 assay with 10 µM ATP (Bayer in house).
Sequence of 5'-AMP-activated protein kinase catalytic subunit alpha-1 (Q13131 whole entry): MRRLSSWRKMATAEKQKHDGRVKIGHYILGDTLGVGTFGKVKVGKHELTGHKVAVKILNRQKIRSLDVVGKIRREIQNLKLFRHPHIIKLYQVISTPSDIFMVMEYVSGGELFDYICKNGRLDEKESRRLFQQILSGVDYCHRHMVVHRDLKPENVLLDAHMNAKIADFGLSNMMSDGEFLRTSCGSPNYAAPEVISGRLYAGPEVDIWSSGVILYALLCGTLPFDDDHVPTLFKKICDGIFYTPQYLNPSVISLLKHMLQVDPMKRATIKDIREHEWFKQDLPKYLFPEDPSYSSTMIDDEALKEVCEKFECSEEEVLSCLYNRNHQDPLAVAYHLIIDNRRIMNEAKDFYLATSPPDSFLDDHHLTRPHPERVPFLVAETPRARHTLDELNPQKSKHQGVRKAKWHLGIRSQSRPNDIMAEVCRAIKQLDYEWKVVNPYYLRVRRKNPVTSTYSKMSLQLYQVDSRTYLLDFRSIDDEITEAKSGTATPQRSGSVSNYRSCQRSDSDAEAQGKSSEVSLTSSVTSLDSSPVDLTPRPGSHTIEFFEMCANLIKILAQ
In experiment [5] the test system is Mast/stem cell growth factor receptor Kit (Homo sapiens), P10721 [V559D]. The conditions noted are these: Compound concentration 1000.0 nM.
Experiment [6] concerns Receptor-type tyrosine-protein kinase FLT3 (Homo sapiens), P36888 [D835V]. The conditions noted are these: Compound concentration 1000.0 nM.
Experiment [7] addresses Calcium/calmodulin-dependent protein kinase type 1D (Homo sapiens) (UniProt Q8IU85). The settings on record: Compound concentration 1000.0 nM.
Experiment [8] deals with T1, Serine/threonine-protein kinase NLK (Homo sapiens) (UniProt Q9UBE8).
T1 sequence (whole entry): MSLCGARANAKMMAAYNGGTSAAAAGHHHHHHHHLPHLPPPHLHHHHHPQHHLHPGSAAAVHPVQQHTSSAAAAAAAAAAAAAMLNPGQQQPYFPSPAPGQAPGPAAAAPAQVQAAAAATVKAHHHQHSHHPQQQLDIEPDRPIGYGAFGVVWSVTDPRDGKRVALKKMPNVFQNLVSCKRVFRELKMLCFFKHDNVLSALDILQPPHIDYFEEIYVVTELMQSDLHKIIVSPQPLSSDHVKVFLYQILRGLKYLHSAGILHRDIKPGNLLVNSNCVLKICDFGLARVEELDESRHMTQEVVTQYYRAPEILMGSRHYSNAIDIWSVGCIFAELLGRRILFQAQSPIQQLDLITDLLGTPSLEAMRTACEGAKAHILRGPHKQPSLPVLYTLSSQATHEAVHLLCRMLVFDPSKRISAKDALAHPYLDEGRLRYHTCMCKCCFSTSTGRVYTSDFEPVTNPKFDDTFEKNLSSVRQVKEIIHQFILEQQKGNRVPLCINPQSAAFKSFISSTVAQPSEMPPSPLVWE
The conditions noted are these: Compound concentration 1000.0 nM.

The target in experiment [9] is T2, Dual specificity mitogen-activated protein kinase kinase 7 (Homo sapiens) (UniProt O14733).
T2 sequence (whole entry): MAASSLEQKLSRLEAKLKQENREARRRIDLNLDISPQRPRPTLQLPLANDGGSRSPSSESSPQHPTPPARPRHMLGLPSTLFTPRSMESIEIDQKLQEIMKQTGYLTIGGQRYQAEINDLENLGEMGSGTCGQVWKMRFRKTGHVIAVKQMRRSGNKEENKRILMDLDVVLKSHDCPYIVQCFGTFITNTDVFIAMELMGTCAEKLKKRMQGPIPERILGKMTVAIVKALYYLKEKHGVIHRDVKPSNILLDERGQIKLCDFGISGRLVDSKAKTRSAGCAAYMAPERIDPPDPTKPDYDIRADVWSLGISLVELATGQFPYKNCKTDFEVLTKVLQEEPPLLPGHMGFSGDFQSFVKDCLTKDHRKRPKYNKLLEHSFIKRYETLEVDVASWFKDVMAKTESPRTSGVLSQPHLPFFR
The conditions noted are these: Compound concentration 1000.0 nM.

In experiment [10] the target is Serine/threonine-protein kinase SIK1 (Homo sapiens) (UniProt P57059). The conditions noted are these: Compound concentration 1000.0 nM.
Sequence of Serine/threonine-protein kinase SIK1 (Homo sapiens) (P57059 whole entry): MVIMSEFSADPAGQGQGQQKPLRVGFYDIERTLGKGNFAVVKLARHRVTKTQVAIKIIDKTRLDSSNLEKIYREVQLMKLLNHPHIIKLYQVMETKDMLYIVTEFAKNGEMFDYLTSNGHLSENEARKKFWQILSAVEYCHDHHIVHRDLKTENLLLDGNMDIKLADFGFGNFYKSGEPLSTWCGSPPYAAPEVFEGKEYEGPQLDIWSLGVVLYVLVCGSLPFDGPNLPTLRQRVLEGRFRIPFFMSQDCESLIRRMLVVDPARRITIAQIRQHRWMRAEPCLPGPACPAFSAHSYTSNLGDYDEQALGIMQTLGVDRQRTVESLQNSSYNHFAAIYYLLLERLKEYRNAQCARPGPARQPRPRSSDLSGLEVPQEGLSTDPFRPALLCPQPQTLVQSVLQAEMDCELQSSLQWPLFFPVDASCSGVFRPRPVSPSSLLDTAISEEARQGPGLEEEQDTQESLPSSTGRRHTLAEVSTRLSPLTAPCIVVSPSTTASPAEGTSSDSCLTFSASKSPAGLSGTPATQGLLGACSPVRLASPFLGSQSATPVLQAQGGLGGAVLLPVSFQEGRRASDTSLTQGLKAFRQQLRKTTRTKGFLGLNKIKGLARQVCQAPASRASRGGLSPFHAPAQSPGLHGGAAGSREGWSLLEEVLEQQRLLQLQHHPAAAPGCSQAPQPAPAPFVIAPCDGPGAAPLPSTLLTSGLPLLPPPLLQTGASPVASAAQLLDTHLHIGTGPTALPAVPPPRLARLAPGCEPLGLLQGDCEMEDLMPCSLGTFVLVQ
For experiment [11], the target named is Ephrin type-A receptor 4 (Homo sapiens) (UniProt P54764). The conditions noted are these: Compound concentration 1000.0 nM.
Sequence of Ephrin type-A receptor 4 (Homo sapiens) (P54764 whole entry): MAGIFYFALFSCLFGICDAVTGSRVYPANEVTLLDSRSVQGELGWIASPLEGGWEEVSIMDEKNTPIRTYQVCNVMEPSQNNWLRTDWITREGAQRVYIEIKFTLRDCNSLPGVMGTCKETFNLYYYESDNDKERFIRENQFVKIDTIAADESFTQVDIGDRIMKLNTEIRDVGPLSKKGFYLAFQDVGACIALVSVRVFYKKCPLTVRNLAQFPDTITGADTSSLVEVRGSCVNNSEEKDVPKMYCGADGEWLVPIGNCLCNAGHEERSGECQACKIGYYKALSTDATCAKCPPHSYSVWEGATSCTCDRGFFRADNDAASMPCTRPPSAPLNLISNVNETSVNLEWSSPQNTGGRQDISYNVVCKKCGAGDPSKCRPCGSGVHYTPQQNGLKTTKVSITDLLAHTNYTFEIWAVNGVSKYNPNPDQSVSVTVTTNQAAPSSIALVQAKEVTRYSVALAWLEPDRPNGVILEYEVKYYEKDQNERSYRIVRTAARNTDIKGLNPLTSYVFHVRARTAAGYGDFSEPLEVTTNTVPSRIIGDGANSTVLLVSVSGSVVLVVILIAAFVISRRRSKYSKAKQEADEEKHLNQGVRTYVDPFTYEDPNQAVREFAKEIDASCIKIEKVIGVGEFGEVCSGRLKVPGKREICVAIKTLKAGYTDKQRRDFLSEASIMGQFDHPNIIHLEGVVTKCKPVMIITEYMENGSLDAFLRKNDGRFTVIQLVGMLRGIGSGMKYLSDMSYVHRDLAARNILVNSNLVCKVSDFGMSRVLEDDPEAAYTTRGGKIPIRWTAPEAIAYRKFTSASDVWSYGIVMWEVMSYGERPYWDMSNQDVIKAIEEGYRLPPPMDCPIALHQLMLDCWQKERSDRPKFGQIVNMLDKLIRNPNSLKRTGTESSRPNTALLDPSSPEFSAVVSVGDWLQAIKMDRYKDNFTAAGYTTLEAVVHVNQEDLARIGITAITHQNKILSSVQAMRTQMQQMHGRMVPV
Experiment [12] deals with T3, Serine/threonine-protein kinase TAO2 (Homo sapiens) (UniProt Q9UL54).
T3 sequence (whole entry): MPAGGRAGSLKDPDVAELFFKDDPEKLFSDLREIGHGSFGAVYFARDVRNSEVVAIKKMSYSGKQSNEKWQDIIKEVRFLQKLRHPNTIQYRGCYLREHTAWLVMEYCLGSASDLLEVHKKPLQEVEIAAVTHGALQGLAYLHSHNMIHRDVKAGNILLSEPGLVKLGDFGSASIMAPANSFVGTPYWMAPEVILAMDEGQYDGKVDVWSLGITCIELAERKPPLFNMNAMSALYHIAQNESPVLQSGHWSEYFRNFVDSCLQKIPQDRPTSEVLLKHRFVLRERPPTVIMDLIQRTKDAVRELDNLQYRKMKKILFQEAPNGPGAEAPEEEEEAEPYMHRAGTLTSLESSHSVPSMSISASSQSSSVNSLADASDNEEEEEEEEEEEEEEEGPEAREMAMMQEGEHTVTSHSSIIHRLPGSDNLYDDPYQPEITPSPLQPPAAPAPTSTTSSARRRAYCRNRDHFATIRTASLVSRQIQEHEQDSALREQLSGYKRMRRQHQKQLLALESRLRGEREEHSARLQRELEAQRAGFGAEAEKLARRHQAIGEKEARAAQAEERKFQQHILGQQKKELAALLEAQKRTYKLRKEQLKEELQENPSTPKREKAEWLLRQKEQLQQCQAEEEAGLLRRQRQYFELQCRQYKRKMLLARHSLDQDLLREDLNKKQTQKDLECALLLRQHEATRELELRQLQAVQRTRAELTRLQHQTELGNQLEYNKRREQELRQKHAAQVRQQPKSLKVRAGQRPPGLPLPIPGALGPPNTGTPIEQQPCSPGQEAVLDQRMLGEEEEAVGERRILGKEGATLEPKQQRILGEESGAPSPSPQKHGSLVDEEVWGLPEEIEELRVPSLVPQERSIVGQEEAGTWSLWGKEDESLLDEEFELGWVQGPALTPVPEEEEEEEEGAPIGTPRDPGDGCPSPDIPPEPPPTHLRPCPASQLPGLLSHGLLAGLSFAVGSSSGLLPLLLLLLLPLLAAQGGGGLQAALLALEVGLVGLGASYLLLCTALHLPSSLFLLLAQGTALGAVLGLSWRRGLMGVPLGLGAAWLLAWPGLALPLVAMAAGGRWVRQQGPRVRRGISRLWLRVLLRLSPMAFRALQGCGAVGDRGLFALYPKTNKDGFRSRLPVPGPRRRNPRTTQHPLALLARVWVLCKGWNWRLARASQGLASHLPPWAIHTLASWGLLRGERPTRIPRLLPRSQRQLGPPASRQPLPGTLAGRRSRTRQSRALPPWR
The settings on record: Compound concentration 1000.0 nM.

For experiment [13], the system named is Receptor-type tyrosine-protein kinase FLT3 (Homo sapiens), P36888 [UNDEFINED MUTATION]. The conditions noted are these: Compound concentration 1000.0 nM.
Experiment [14] addresses Receptor-interacting serine/threonine-protein kinase 2 (Homo sapiens) (UniProt O43353). The settings on record: Compound concentration 1000.0 nM.
The subject of experiment [15] is Tyrosine-protein kinase ABL1 (Homo sapiens), P00519 [Q252H]. The settings on record: Compound concentration 1000.0 nM.

Sequence of Receptor-interacting serine/threonine-protein kinase 2 (Homo sapiens) (O43353 whole entry): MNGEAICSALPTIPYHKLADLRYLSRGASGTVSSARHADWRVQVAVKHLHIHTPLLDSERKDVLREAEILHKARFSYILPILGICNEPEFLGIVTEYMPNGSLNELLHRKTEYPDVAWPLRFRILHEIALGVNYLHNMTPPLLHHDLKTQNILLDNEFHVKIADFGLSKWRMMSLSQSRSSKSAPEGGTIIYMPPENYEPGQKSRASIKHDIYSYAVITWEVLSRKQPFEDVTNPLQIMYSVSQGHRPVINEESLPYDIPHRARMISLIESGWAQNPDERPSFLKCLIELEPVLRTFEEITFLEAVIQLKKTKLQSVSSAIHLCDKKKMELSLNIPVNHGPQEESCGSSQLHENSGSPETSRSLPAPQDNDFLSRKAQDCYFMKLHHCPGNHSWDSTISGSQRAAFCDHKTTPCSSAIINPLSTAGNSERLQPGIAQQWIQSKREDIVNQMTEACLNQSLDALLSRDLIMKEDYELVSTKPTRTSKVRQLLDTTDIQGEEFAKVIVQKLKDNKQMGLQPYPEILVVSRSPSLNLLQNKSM
Sequence of Glycogen synthase kinase-3 alpha (Homo sapiens) (P49840 2-483 limits assumed): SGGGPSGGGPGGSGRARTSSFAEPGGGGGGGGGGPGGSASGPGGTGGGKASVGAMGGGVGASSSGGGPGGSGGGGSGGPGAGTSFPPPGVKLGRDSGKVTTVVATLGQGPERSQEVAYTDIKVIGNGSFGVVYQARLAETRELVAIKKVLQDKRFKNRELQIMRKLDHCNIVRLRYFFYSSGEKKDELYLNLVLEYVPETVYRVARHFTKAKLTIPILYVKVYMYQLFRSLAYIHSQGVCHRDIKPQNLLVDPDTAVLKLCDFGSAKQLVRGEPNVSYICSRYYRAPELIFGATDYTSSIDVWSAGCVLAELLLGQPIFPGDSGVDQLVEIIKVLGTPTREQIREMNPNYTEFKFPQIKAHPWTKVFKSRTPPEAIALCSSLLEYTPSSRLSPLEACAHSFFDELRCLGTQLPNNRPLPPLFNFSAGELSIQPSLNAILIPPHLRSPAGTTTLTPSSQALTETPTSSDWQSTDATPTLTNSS
Sequence of Calcium/calmodulin-dependent protein kinase type 1D (Homo sapiens) (Q8IU85 whole entry, looked up): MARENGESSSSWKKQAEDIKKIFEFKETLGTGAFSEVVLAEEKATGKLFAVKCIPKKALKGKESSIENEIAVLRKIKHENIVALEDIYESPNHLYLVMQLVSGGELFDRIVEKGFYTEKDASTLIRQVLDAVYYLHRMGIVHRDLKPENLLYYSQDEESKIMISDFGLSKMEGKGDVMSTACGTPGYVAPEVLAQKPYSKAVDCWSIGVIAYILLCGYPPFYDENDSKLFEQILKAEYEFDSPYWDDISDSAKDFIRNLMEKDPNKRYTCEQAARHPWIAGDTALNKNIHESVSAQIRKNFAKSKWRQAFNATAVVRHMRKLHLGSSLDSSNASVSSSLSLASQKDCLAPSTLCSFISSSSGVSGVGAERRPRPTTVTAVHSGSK

As to `CCc1ccccc1C(=O)Nc1n[nH]c2c(C)c(F)c(C3C(C#N)=C(C)N(C)C(C)=C3C#N)cc12` [BAY-3827], the residual activity in experiment [1] is 90%; in experiment [2] it was 7.3%; in experiment [3], 100%; in [5] it was 83%; in [6], 3.2%; in [7], 87%. Besides, the residual activity in experiment [8] was 100%; in experiment [9] it was 100%; in experiment [10], 66%; in experiment [11], 100%; in [12], 96%; in experiment [13], 11%. The residual activity was 100% in experiment [14] and 99% in experiment [15]. For the same compound, the IC50 in [4] is 0.0014 µM (active).

Regarding `CC1=C(C#N)C(c2ccc3c(c2)c(NC(=O)c2ccccc2C)nn3C)C(C#N)=C(C)N1` [BAY-974], the residual activity in experiment [1] was 100%; in [2], 24%; in experiment [3] it was 74%; in experiment [5], 100%; in [6], 90%; in experiment [7], 93%. In addition, the residual activity in experiment [8] is 100%; in [9], 65%; in experiment [10], 88%; in [11] it was 93%; in experiment [12] it was 70%; in experiment [13], 64%. In addition, the residual activity in experiment [14] is 100%; in experiment [15], 73%. In experiment [4], the IC50 was > 20 µM (not active).

The values above are taken from ChEMBL document CHEMBL4507319 (2021).
